According to patent US9901617B2, “Cell permeable inhibitors of the scaffold protein plenty of SH3 domains (POSH) or Sh3Rfl” (The Curators of the University of Missouri, priority 2013, dated 2018):
No end group written: not given here.

Tests used:
[1] = biological target: POSH/JIP-1 complex (Mus musculus, UniProt Q9WVI9)
Protocol: To identify a role for POSH in TCR-mediated JNK activation, we established its ability to bind components of the JNK signaling cascade in CD8+ T cells. For this, OT-1 TCR transgenic blasts (CTL) were re-stimulated with OVA-Tetramer (Tet)/α-CD28 and subjected to IP with antibodies against Rac1. Co-immunoprecipitation (Co-IP) of components of the JNK signaling pathway was assessed by immunoblot. […] To circumvent this problem we performed Co-IP analyses by flow cytometry (IP-FCM) using α-Rac1, α-POSH and α-JIP-1 antibodies covalently linked to latex beads. The beads were incubated with the lysates washed and probed with antibodies against the Co-IP target. The levels of associated molecules (secondary analyte/Co-IP target) were quantified relative to IP target (primary analyte/loading control). Specificity was determined by comparison to both isotype and negative control antibodies (FIG. 5 and FIG. 6). […] For IP-FCM quantification controls and Tat-POSH inhibitor specificity controls, OT-I T cells were stimulated with OVA-Tet for 24 hours. Cells were then lysed and subjected to IP-FCM using α-Rac-1, α-POSH or α-JIP-1 beads (FIG. 6A).
Cells were then lysed and subjected to IP-FCM using α-JIP-1 or α-Rac1 beads and the relative levels of POSH or JIP-1 were determined.

[2] = system: T cells; conditions: across a large range of concentrations
[3] = system: CD8+ T cells; conditions: data not shown
[4] = system: normal thymocytes

POSH/JIP-1 complex, sequence (Q9WVI9 whole entry): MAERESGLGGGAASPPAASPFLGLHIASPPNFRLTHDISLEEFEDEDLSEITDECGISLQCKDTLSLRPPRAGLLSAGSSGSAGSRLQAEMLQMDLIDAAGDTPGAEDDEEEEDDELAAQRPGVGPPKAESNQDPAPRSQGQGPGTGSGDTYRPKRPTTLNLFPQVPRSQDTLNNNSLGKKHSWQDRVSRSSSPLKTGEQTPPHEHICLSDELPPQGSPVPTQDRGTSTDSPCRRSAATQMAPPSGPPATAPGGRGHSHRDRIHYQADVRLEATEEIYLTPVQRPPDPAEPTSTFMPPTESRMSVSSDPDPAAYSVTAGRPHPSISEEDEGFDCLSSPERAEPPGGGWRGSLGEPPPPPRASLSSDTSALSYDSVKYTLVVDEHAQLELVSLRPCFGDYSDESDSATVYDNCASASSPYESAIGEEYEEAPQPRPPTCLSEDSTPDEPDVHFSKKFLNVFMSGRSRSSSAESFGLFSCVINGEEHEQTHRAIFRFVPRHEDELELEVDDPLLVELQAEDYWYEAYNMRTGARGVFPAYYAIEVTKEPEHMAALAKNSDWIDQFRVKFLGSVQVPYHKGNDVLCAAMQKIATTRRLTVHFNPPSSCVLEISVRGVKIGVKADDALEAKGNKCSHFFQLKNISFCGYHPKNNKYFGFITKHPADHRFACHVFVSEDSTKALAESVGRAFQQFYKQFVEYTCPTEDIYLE
POSH/JIP-1 complex, sequence (Q8CE90 whole entry partner): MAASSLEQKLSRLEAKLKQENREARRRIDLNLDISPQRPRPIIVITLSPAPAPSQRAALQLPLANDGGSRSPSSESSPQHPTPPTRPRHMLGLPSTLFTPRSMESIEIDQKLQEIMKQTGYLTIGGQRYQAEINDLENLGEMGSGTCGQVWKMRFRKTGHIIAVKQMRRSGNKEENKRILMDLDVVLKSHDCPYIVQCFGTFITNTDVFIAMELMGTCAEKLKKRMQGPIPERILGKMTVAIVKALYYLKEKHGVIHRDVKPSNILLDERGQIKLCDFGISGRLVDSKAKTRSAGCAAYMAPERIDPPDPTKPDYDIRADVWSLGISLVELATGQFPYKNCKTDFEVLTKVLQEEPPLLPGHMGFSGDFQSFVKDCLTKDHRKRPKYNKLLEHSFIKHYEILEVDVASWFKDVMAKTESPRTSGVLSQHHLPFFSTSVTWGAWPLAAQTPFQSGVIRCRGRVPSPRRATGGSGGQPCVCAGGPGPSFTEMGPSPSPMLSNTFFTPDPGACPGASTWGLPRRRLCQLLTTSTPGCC
POSH/JIP-1 complex, sequence (Q91Y86 whole entry partner): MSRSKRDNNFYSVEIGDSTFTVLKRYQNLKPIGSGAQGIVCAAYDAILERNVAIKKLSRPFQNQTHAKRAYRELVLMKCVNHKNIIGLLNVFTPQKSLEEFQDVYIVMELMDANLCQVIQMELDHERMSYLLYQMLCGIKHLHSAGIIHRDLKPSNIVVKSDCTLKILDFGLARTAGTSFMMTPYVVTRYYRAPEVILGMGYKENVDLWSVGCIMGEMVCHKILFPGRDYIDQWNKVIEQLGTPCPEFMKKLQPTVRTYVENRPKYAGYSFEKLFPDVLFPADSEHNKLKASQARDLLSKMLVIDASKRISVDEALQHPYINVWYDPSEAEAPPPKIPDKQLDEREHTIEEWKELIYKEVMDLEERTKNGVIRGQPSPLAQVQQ

With “GRKKRRQRRRPPRKEDELELRKGEMFLVFER [Tat-POSH SH3.3]” the POSH/JIP-1 complexes disrupted [1] was “approximately 30%”, the “toxicity to T cells” value [2] was “non-toxic” and the “reduction in in vitro cytotoxicity” value [3] was 10-15%. For the same sequence, the “effect on normal cells” value [4] was “not affected”.
